Square brackets hold non-standard residues; d marks the D form. Peptide text beside a SMILES is read from it. dLac(3-vinyl) = C=CC[C@@H](O)C(=O)O; dHica = CC(C)C[C@@H](O)C(=O)O; NMeV = CN[C@H](C(=O)O)C(C)C; NMeA = CN[C@@H](C)C(=O)O; βAla = NCCC(=O)O
Columns and labels:
mice [1] = details: intraperitoneal injection; cited from earlier work
silk worm larvae = details: cited from earlier work
mice [2] = assay: Toxicity to mice by intraperitoneal injection; details: ratio of lethal doses
Heliothis zea = assay: Insecticidal activity, diet incorporation, neonate corn earworm larvae; assay type: in vivo; details: 2.5 ppm in diet; for Mortality: neonate larvae fed 1 week; for Wt. reductions: survivors after 1 week
Experimental: (§1) Insects. Neonate larvae of Heliothis zea and Spodoptera frugiperda were used for all assays. They were obtained from laboratory colonies reared on pinto bean-based diet at 27°±1° C., 40±10% relative humidity, and a 14:10 light:dark photoperiod.
(§2) The diet used to rear the insects was based on a standard pinto bean diet for many species of lepidoptera and contained the following ingredients: 120 g dried pinto beans, 43 g wheat germ, 28 g brewer's yeast, 8 g Vanderzant's vitamin mix, 2.8 g ascorbic acid, 1.75 g methyl paraben, 0.9 g sorbic acid, 12 g agar, 1 ml formaldehyde (38%), 1.5 ml of propionic-phosphoric acid solution (42% propionic acid, 4.2% phosphoric acid), and 550 ml water. All dry diet ingredients (except for the pinto beans) were purchased from U.S. Biochemicals Corp. Before use, the beans were soaked in water until saturated. The agar was added to 250 ml of water and brought to a boil. The other ingredients were blended in a Waring blender until uniformly mixed. The hot agar was added, and blending continued until all ingredients were uniformly mixed.
(§3) The pinto bean-based diet was prepared and added in 5-ml quantities to test tubes. The test tubes were held at 60° C. until chemicals were incorporated to prevent solidification of the diet. The roseotoxin B was added in 125 μl of acetone to the liquid diet upon removal from the water bath to give a final concentration of 250-2.5 ppm. The chemical was incorporated into the diets by blending vigorously with a vortex mixer for 20 sec. Preliminary observations with colored solutions of both water and acetone indicated uniform incorporation by this method. The diets were dispensed into culture plates, and allowed to cool to room temperature. To remove the potentially toxic acetone, the diets were placed in a fume hood for ca. 20 min until slight darkening occurred. The diets were cut into approximately equal sections, and each section was placed into a well of a 24-well immunoassay plate. A single neonate H. zea or S. frugiperda larvae was added to each well. To prevent desiccation of the diet, the plate was covered by a sheet of parafilm, a sheet of cardboard, and the plastic cover. The cover was secured by two rubber bands, and groups of plates were placed in two polyethylene bags held closely by rubber bands. The plates were held under the same conditions used to rear the insects. Mortality was checked at 2, 4, and 7 days, and the surviving larvae were weighed after 7 days. Each chemical set was tested on a total of 40 larvae.
(§4) Mortality values are based on two replicates of ca. 20 insects each, whil
(§5) weight reductions are based on survivors of mortality tests. All chemical
(§6) were incorporated into insect diets, and fed to neonate larvae for 1 week

Spodoptera frugiperda = assay: Insecticidal activity, diet incorporation, neonate fall armyworm larvae; assay type: in vivo; details: 2.5 ppm in diet; for Mortality: neonate larvae fed 1 week; for Wt. reductions: survivors after 1 week
Experimental: as §1, §2, §3, §4, §5, §6

Structure (SMILES)	Dose that killed all test mice (mice [1]) [mg/kg]	Dose causing death by injection (silk worm larvae) [µg/g]	Mammalian toxicity relative to roseotoxin B (mice [2])	Mortality (Heliothis zea) [%]	Wt. reductions (Heliothis zea) [%]	Mortality (Spodoptera frugiperda) [%]	Wt. reductions (Spodoptera frugiperda) [%]
CC[C@H](C)[C@@H]1NC(=O)[C@@H]2CCCN2C(=O)[C@@H](CC(C)C)OC(=O)CCNC(=O)[C@H](C)N(C)C(=O)[C@H](C(C)C)N(C)C1=O [Destruxin B] (cyclo([dHica]PI[NMeV][NMeA][βAla]))	16.9	0.34	about 10 times	–	–	–	–
CCOC(=O)CC(SP(=S)(OC)OC)C(=O)OCC (centres unmarked) [Malathion]	–	–	–	5.5	27	30	45
CC1(C)C(C=C(Cl)Cl)C1C(=O)OCc1cccc(Oc2ccccc2)c1 (centres unmarked) [Permethrin]	–	–	–	17	81	35	94
C=CC[C@H]1OC(=O)CCNC(=O)[C@H](C)N(C)C(=O)[C@H](C(C)C)N(C)C(=O)[C@H]([C@@H](C)CC)NC(=O)[C@@H]2CCCN2C1=O [destruxin A] (cyclo([dLac(3-vinyl)]PI[NMeV][NMeA][βAla]))	1.35	0.28	approximately 100 times	–	–	–	–

Reference: patent publication US4956343A, “Control of insects by Roseotoxin B” (priority 1988, dated 1990)
